Reference: PMC8217170, “Phase Ib dose-escalation study of the hypoxia-modifier Myo-inositol trispyrophosphate in patients with hepatopancreatobiliary tumors” (Nature Communications, 2021)
Values joined by “and” are separate entries in the source; they are usually repeats but may differ in a detail not shown here. Equal entries are not always repeated.

Tested on: target lesions of PDAC, CRLM, CCA and HCC
Test: Metabolic radiological response, FDG-PET-CT, EORTC criteria
Format: in vivo, human
Set-up: key to EORTC response after chemotherapy / EORTC response after ITPP / RespITPP_EORTC / RespChemo_EORTC: CMR = complete metabolic response; PMR = partial metabolic response; SMD = stable metabolic disease; PMD = progressive metabolic disease; Median change in metabolic activity, EORTC: concentration or dose not given beside the values; Lesion1_pre_TLG / Lesion1_post_TLG / Lesion1_chemo_TLG / Lesion2_pre_TLG / Lesion2_post_TLG / Lesion2_chemo_TLG / Lesion3_pre_TLG / Lesion3_post_TLG / Lesion3_chemo_TLG / Lesion4_pre_TLG / Lesion4_post_TLG / Lesion4_chemo_TLG / Lesion5_pre_TLG / Lesion5_post_TLG / Lesion5_chemo_TLG: unit not given here
Details: for EORTC response after chemotherapy: chemotherapy subsequent to ITPP
Experimental: Radiological assessment, consisting of abdominal MRI and FDG-PET-CT, was performed before ITPP administration and after the 3-week treatment course. Where possible, radiological re-evaluation was performed after 3–6 cycles of chemotherapy. Radiological responses were evaluated according to the RECIST 1.1 criteria[56] for MRI and EORTC criteria[57] for FDG-PET-CT imaging.
Then first calculate the sum of diameters (DM) and SUV-activities of radiological target lesions before ITPP (sum_pre), after ITPP (sum_post) and after subsequent chemotherapy (sum_chemo) for assessment of morphological RECIST1.1 (diameter) and metabolical EORTC (SUV activiy) responses.
Patient 1 (dropout after only 2 infusions and subsequent death due to rapid oncological progression) is excluded for radiological assessment due to no follow up imaging available.
In a second step, we calculate percent changes (PC) of diameter and SUV activity between before ITPP, after ITPP and after chemotherapy.

[1] = after chemotherapy subsequent to ITPP, 15 patients
[2] = individual patients, lesion 1, after subsequent chemotherapy
[3] = individual patients, lesion 1, post ITPP
[4] = individual patients, lesion 1, pre ITPP (baseline)
[5] = individual patients, lesion 2, after subsequent chemotherapy
[6] = individual patients, lesion 2, post ITPP
[7] = individual patients, lesion 2, pre ITPP (baseline)
[8] = individual patients, lesion 3, after subsequent chemotherapy
[9] = individual patients, lesion 3, post ITPP
[10] = individual patients, lesion 3, pre ITPP (baseline)
[11] = individual patients, lesion 4, after subsequent chemotherapy
[12] = individual patients, lesion 4, post ITPP
[13] = individual patients, lesion 4, pre ITPP (baseline)
[14] = individual patients, lesion 5, after subsequent chemotherapy

O=P1(O)OC2C3OP(=O)(O)OP(=O)(O)OC3C3OP(=O)(O)OP(=O)(O)OC3C2OP(=O)(O)O1 (stereo not drawn) [ITPP, Myo-inositol trispyrophosphate]
Median change in metabolic activity, EORTC (CCA, following chemotherapy): −32.39% | Median change in metabolic activity, EORTC (CCA, under ITPP monotherapy): 17.97% | Median change in metabolic activity, EORTC (CRLM, following chemotherapy): −14.64% | Median change in metabolic activity, EORTC (CRLM, under ITPP monotherapy): 40.1% | Median change in metabolic activity, EORTC (HCC, following chemotherapy): −8.47% | Median change in metabolic activity, EORTC (HCC, under ITPP monotherapy): 15.54% | Share of patients with PMR (ITPP monotherapy): 15% | Share of patients with SMD (ITPP monotherapy): 41% | Median change in metabolic activity, EORTC (PDAC, following chemotherapy): −52.19% | Median change in metabolic activity, EORTC (PDAC, under ITPP monotherapy): −3.36% | Metabolic progressions (PMD), EORTC (after ITPP monotherapy): 10 | Partial metabolic responses (PMR), EORTC (after ITPP monotherapy): four | Stable metabolic diseases (SMD), EORTC (after ITPP monotherapy): 11 | Patients with PMD, EORTC [1]: 4 | Patients with PMR, EORTC [1]: 4 | Patients with SMD, EORTC [1]: 7 | Share of patients with PMR (after subsequent chemotherapy): 27% | Share of patients with SMD (after subsequent chemotherapy): 47% | EORTC response after ITPP (individual patients, cohort 1 (1866 mg/m2)): PMD and PMR and SMD | EORTC response after chemotherapy (individual patients, cohort 1, 1866 mg/m2): PMR | EORTC response after ITPP (individual patients, cohort 2 (3732 mg/m2)): SMD and PMR | EORTC response after chemotherapy (individual patients, cohort 2, 3732 mg/m2): SMD and PMR | EORTC response after ITPP (individual patients, cohort 3 (5600 mg/m2)): SMD and PMR | EORTC response after chemotherapy (individual patients, cohort 3, 5600 mg/m2): SMD and PMD | EORTC response after ITPP (individual patients, cohort 4 (7000 mg/m2)): PMD and SMD | EORTC response after chemotherapy (individual patients, cohort 4, 7000 mg/m2): SMD | EORTC response after ITPP (individual patients, cohort 5 (8750 mg/m2)): SMD and PMD | EORTC response after chemotherapy (individual patients, cohort 5, 8750 mg/m2): PMD | EORTC response after ITPP (individual patients, cohort 6 (10500 mg/m2)): PMD and SMD | EORTC response after chemotherapy (individual patients, cohort 6, 10500 mg/m2): PMD and PMR and SMD | EORTC response after ITPP (individual patients, cohort 7 (12390 mg/m2)): PMD and PMR | EORTC response after chemotherapy (individual patients, cohort 7, 12390 mg/m2): SMD | EORTC response after ITPP (individual patients, cohort 8 (14500 mg/m2)): PMD and SMD | EORTC response after chemotherapy (individual patients, cohort 8, 14500 mg/m2): SMD | Lesion1_chemo_SUV [2]: 13.27 and 7.35 and 9.2 and 4.3 and 17.8 and 12.2 and 6.7 and 7.2 and 13.5 and 10.7 and 12.4 and 5.5 and 7.7 and 6.77 | Lesion1_chemo_TLG [2]: 4678.1 and 60.2 and 158.8 and 9.1 and 331.5 and 23.3 and 13.1 and 256.8 and 487.3 and 17.2 and 3.8 and 24.1 | Lesion1_post_SUV [3]: 17.32 and 8.65 and 4.69 and 14.2 and 13.2 and 10.3 and 8.4 and 9.8 and 10.7 and 12.2 and 18.4 and 13.9 and 18.7 and 7.5 and 12 and 8.8 and 12.7 and 10.8 and 45.7 and 4.25 and 11.68 and 7.7 and 10.67 and 9.79 | Lesion1_post_TLG [3]: 7101.9 and 86.3 and 302.7 and 877.7 and 139.3 and 181.7 and 75 and 382.8 and 112.3 and 878.1 and 21.6 and 249.1 and 3441.2 and 63.2 and 62.4 and 4.1 and 71.4 and 2012.6 | Lesion1_pre_SUV [4]: 14.29 and 12.03 and 5.25 and 9.2 and 10.8 and 9.1 and 7.6 and 8 and 8.3 and 7 and 14.1 and 9.3 and 12.4 and 9 and 13.2 and 11 and 12.04 and 21.6 and 5.32 and 11.06 and 6.36 and 11.68 and 11.22 | Lesion1_pre_TLG [4]: 4372.3 and 124.4 and 1117.7 and 865.6 and 104.9 and 699.3 and 37.5 and 197.8 and 43.3 and 531.1 and 1331.5 and 11.5 and 69 and 261.2 and 492.5 and 34.8 and 58.7 and 2.3 and 148.5 and 3074.9 | Lesion2_chemo_SUV [5]: 4.43 and 13.5 and 11.3 and 7.8 and 11.2 and 11 and 7 and 9.4 and 9.6 and 7.5 and 10.3 and 10.5 and 3.4 and 4.42 and 3.74 | Lesion2_chemo_TLG [5]: 4.9 and 33.2 and 133.7 and 36.1 and 149.3 and 14.3 and 27.9 and 32.3 and 3.9 and 12.6 and 26.7 | Lesion2_post_SUV [6]: 4.64 and 3.03 and 11.4 and 7.9 and 6.6 and 12.3 and 14 and 13.6 and 9 and 9.6 and 8.6 and 8.1 and 8.4 and 10.3 and 40.7 and 6.42 and 6.24 and 10.36 and 3.73 | Lesion2_post_TLG [6]: 7.8 and 11.6 and 331.6 and 39.8 and 377.1 and 65.2 and 12.4 and 11.8 and 24.4 and 19.9 and 14.3 and 147.3 and 3.1 | Lesion2_pre_SUV [7]: 3.34 and 10.83 and 7.9 and 7.2 and 3.9 and 7.6 and 11.6 and 13 and 5 and 7.8 and 5.5 and 3 and 10.2 and 13.3 and 20.8 and 5.84 and 5.77 and 11.3 and 4.77 | Lesion2_pre_TLG [7]: 3.9 and 7.1 and 175.5 and 11.2 and 263.8 and 27.2 and 31.1 and 3.3 and 23.7 and 55 and 21.4 and 24.9 and 86.2 and 13.2 | Lesion3_chemo_SUV [8]: 10.68 and 18.07 and 6.5 and 2.3 and 9.2 and 3.6 and 3.1 and 10.9 and 2.7 and 2.5 and 0 | Lesion3_chemo_TLG [8]: 308 and 244.4 and 13.2 and 1 and 42.3 and 3.4 and 0.3 and 0 | Lesion3_post_SUV [9]: 13.38 and 8.25 and 7.8 and 2.7 and 13 and 9.9 and 13.6 and 3.9 and 32.3 and 10.6 and 2.97 and 3.4 | Lesion3_post_TLG [9]: 436.7 and 47.6 and 16.7 and 1.2 and 79.1 and 13.5 and 26.8 and 22.4 and 1.1 and 3.2 | Lesion3_pre_SUV [10]: 12.41 and 13.89 and 10.1 and 2.3 and 3.6 and 5.8 and 13.7 and 2.6 and 10.84 and 19.9 and 10.9 and 2.7 and 7.35 | Lesion3_pre_TLG [10]: 261.7 and 28.6 and 21.7 and 1 and 13.5 and 3.4 and 72.1 and 179.3 and 22.6 and 0.1 and 3.9 | Lesion4_chemo_SUV [11]: 2.5 and 3.2 and 4.7 and 3.72 | Lesion4_chemo_TLG [11]: 1.3 and 2.7 and 0 and 46.4 | Lesion4_post_SUV [12]: 3.5 and 16.1 and 6.1 and 1.6 and 14.37 | Lesion4_post_TLG [12]: 1.3 and 42.9 and 0 and 161.9 | Lesion4_pre_SUV [13]: 7.6 and 11.5 and 4.2 and 8.83 and 3.9 and 13.22 | Lesion4_pre_TLG [13]: 17.4 and 33.9 and 16.4 and 1.1 and 84.7 | Lesion5_chemo_SUV [14]: 2 and 9.1 and 1.4 and 0 | Lesion5_chemo_TLG [14]: 3.4 and 0
